In patent US11787769B2 (priority 2019, dated 2023):
Read-outs that look alike come from different tables or passages of the source.

Experiments:
[1] = system: influenza A virus (HA of H5N1, Goose/Qinghai/59/05); experiment: microbe, parasite or virus in culture; assay type: cell-based; conditions: Influenza A virus
[2] = system: PR8-PB2-Gluc, influenza A/Puerto Rico/8/1934 (PR8) H1N1 virus; experiment: microbe, parasite or virus in culture; assay type: cell-based; conditions: Influenza A virus, MDCK, read-out: EC50 (nM), antiviral activity in the infectious IAV
PR8-NS1-Gluc virus = experiment: microbe, parasite or virus in culture; assay type: cell-based, influenza A PR8
CYP3A4 = CYP3A4 (Homo sapiens, UniProt P08684); experiment: biochemical
Sequence of CYP3A4 (P08684 whole entry): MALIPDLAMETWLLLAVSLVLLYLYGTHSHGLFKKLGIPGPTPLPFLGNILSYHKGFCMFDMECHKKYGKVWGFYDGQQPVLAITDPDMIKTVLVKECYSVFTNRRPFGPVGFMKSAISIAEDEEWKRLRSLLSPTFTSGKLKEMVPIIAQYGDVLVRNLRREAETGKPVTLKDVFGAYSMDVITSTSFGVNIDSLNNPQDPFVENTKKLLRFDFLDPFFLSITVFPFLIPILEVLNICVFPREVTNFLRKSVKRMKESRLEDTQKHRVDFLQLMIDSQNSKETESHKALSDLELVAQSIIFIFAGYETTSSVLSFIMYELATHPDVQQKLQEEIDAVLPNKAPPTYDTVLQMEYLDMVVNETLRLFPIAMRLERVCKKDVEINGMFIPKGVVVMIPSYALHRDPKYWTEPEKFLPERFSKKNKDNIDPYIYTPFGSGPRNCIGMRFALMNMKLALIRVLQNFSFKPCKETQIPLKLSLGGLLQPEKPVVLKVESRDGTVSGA

CYP2C9 = CYP2C9 (Homo sapiens, UniProt P11712); experiment: biochemical
Sequence of CYP2C9 (P11712 whole entry): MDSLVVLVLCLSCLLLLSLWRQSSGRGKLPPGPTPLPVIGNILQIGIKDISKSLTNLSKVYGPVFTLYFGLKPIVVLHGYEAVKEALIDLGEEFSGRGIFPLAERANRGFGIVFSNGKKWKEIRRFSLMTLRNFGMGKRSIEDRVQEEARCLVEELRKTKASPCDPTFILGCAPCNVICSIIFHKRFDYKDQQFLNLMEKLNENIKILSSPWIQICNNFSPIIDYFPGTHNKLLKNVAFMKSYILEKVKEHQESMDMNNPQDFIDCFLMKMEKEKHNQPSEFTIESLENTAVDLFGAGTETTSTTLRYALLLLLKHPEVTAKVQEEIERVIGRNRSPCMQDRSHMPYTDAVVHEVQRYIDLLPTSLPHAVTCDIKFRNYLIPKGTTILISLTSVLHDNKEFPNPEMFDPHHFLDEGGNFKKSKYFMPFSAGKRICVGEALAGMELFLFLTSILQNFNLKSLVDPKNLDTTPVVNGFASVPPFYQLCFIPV

[3] = Hepatic metabolic stability in mouse liver microsomes; conditions: mouse LM, in the presence of NADPH
[4] = Hepatic metabolic stability in human liver microsomes; conditions: human LM, in the presence of NADPH
[5] = Pharmacokinetic analysis of plasma and liver levels in BALB/c mice
[6] = Influenza A virus, PR8, MDCK, 48 h

With `CC(C)(C)N1CCC(NC(=O)c2ccc(C(F)(F)F)cc2Cl)CC1` [Compound 16, N-(1-(tert-Butyl)piperidin-4-yl)-2-chloro-4-(trifluoromethyl)benzamide] the inhibition at 12.5 µM ([1]; H5N1, A549, 12.5 μM, read-out: H5N1 pseudotype assay % inhibition at 12.5 μM) was 99%, the EC50 ([1]; H5N1, A549, read-out: H5N1 pseudotype assay EC50 (μM)) was 0.24 ± 0.09 µM and the EC50 [2] was 72 nM. The “EC30” value (PR8-NS1-Gluc virus) was 0.134 µM, the “EC40” value (PR8-NS1-Gluc virus) was 0.16 µM and the “EC60” value (PR8-NS1-Gluc virus) was 0.219 µM. The “EC70” value (PR8-NS1-Gluc virus) was 0.26 µM, the “EC80” value (PR8-NS1-Gluc virus) was 0.321 µM and the EC50 (PR8-NS1-Gluc virus; [6]) was 0.187 µM. It also gave an EC90 (PR8-NS1-Gluc virus; [6]) of 0.439 µM, an IC50 (CYP3A4) of over 100 µM and an IC50 (CYP2C9) of over 100 µM. For the same compound, the “percentage of compound remaining after 60 minutes” value [3] was 94%, the “percentage of compound remaining after 60 minutes” value [4] was 97% and the Cmax ([5]; 5x the dose p.o. (50 mg/kg), plasma) was 7641 ng/mL. The “Cmax p.o. relative to i.p. (fold higher)” value ([5]; 5x the dose p.o. vs 10 mg/kg i.p., plasma) was 7 ×, the oral bioavailability ([5]; BALB/c mice, p.o. vs i.p. Cmax) was “excellent oral bioavailability” and the Tmax ([5]; BALB/c, mouse, plasma, intraperitoneal, oral) was 30 min. The “AUC(0-8 h)” value ([5]; i.p. (10 mg/kg), liver) was 66400 ng·h/g, the T1/2 ([5]; i.p. (10 mg/kg), liver) was 148 min and the Tmax ([5]; i.p. (10 mg/kg), liver) was 15 min. The “AUC(0-8 h)” value ([5]; i.p. (10 mg/kg), plasma) was 3282 ng·h/g, the T1/2 ([5]; i.p. (10 mg/kg), plasma) was 91.8 min and the Tmax ([5]; i.p. (10 mg/kg), plasma) was 30 min. The “AUC(0-8 h)” value ([5]; p.o. (50 mg/kg), liver) was 292000 ng·h/g, the T1/2 ([5]; p.o. (50 mg/kg), liver) was 155 min and the Tmax ([5]; p.o. (50 mg/kg), liver) was 60 min. For the same compound, the “AUC(0-8 h)” value ([5]; p.o. (50 mg/kg), plasma) was 23705 ng·h/g, the T1/2 ([5]; p.o. (50 mg/kg), plasma) was 130 min and the Tmax ([5]; p.o. (50 mg/kg), plasma) was 30 min. The Cmax ([5]; read-out: Cmax level in the plasma, 10 mg/kg i.p.) was 3.12 µM.
